From US4938964A, “External dermatological composition” (Showa Denko Kabushiki Kaisha, priority 1987, dated 1990)

What was measured:
[1] = Evaluation Example 1: drug absorption to skin from residual drug amount, HPLC; conditions: formulated into the (meth)acrylic copolymer used in the present invention; Table 1
Description: The tape preparation or poultice preparation was peeled off 24 hours after application, and the drug remaining on the applied site was wiped off with defatted cotton containing 1 ml of distilled water. The tape preparation or poultice preparation peeled off was stirred in 200 ml of hot ethanol for 2 hours to extract the drug, cooled to room temperature, and then brought to a constant volume of 200 ml with ethanol. To 5 ml of the solution was added 5 ml of an internal standard substance (300 μg/ml of an aqueous flulubiprofen solution was used), and after bringing to a constant volume of 50 ml with ethanol, the residual drug amount was measured by high performance liquid chromatography (hereinafter abbreviated as HPLC). The defatted cotton was stirred in 200 ml of distilled water for 2 hours to extract the drug, and to 5 ml of the solution was added 5 ml of the internal standard substance. After the mixture was brought to a constant volume of 50 ml with distilled water, the remaining drug amount was measured by HPLC.
The ointment was wiped off with defatted cotton containing ethanol (10 ml of ethanol content) 24 hours after application. […] To 5 ml of the solution was added 5 ml of the above internal standard substance, and after bringing to 50 ml with ethanol, the remaining drug amount was measured by HPLC.

[2] = Evaluation Example 3: remaining drug amount in tape preparation after storage; format: physicochemical; conditions: formulated into the (meth)acrylic copolymer used in the present invention; Table 3
Description: The tape preparation prepared in Example 4 and Comparative Examples 8 and 9 were cut into 7×10 cm squares and were placed in a polyethylene-aluminum laminate bag and all four sides of the bag were sealed.
The tape agent was stored at 40° C. and 75% R.H. for 3 months and the remaining drug amount in the tape preparation was measured in the same manner as in Evaluation Example 1.
From the residual amount of drug measured, the drug remaining rate was calculated by the following formula: [formula]

[3] = keratin soluble enzyme, N-acylsarcosine, aliphatic monoalkylolamide, or organic acid added; cited from earlier work
[4] = adhesives containing polar monomers; cited from earlier work

Row | SMILES | percutaneous absorption of the drug (in words) [1] | chemical stability in the preparations (in words) [2] | enhancement of the absorption by additive substance [3] | amount formulated at which crystals are not precipitated [4]
1 | O=C(O)Cc1ccccc1Nc1c(Cl)cccc1Cl [diclofenac sodium] | poor | poor | – | –
2 | COc1ccc2c(c1)c(CC(=O)O)c(C)n2C(=O)c1ccc(Cl)cc1 [indomethacin] | poor | poor | 2 -fold | –
3 | CC(C(=O)O)c1cccc(Oc2ccccc2)c1 (stereo not shown) [fenoprofen] | – | – | 2 -fold | –
4 | CC(C(=O)O)c1cccc(C(=O)c2ccccc2)c1 (stereo not shown) [ketoprofen, 3-Benzoylhydratropic acid] | – | – | – | about 40 % by weight
